Data published in PubChem BioAssay (NCI).
Several values for one entry are separate records, joined by “and”; a condition that tells them apart may be missing. Equal values may be shown once.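 Compound exposure: 48 hours, 5 concentrations, 96-well plates. GI50 marks 50% less growth. TGI is the concentration that stops growth completely.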

Assays:
Experiment in all cases: DTP human tumour cell line panel, 48 h
A498 renal = tested on: A498 renal
HCT-15 colon = tested on: HCT-15 colon
IGROV1 ovarian = tested on: IGROV1 ovarian
K-562 leukemia = tested on: K-562 leukemia
LOX IMVI melanoma = tested on: LOX IMVI melanoma
MALME-3M melanoma = tested on: MALME-3M melanoma
RXF 393 renal = tested on: RXF 393 renal
SN12C renal = tested on: SN12C renal
SNB-19 CNS = tested on: SNB-19 CNS
SR leukemia = tested on: SR leukemia

Compound: OC1=CN=C(c2ccccc2)Oc2ccccc21
- TGI (A498 renal): > 100 µM
- TGI (HCT-15 colon): > 100 µM
- TGI (IGROV1 ovarian): > 100 µM
- TGI (K-562 leukemia): > 100 µM
- TGI (LOX IMVI melanoma): > 100 µM
- TGI (MALME-3M melanoma): > 100 µM
- TGI (RXF 393 renal): > 100 µM
- TGI (SN12C renal): > 100 µM
- TGI (SNB-19 CNS): > 100 µM

Compound: CO[C@H]1C(=O)[C@]2(C)[C@@H](OC)C[C@H]3OC[C@@]3(OC(C)=O)[C@H]2[C@H](OC(=O)c2ccccc2)[C@]2(O)C[C@H](OC(=O)[C@H](O)[C@@H](NC(=O)OC(C)(C)C)c3ccccc3)C(C)=C1C2(C)C
- GI50 (A498 renal): < 0.01 µM
- TGI (A498 renal): 10.1 µM
- GI50 (HCT-15 colon): < 0.01 µM
- TGI (HCT-15 colon): 56 µM
- GI50 (IGROV1 ovarian): < 0.01 µM
- TGI (IGROV1 ovarian): > 100 µM
- GI50 (K-562 leukemia): < 0.01 µM
- TGI (K-562 leukemia): > 100 µM
- GI50 (LOX IMVI melanoma): < 0.01 µM
- TGI (LOX IMVI melanoma): 49.7 µM
- GI50 (RXF 393 renal): < 0.01 µM
- TGI (RXF 393 renal): 10.7 µM
- GI50 (SN12C renal): < 0.01 µM
- TGI (SN12C renal): > 100 µM
- GI50 (SNB-19 CNS): < 0.0134 µM
- TGI (SNB-19 CNS): > 100 µM
- GI50 (SR leukemia): < 0.01 µM

Compound: COc1cc2c(c3c1c(=O)c1ccccc1n3C)C=C([N+](=O)[O-])C(C)(C)O2
- TGI (A498 renal): 12.5 µM
- TGI (HCT-15 colon): > 100 µM
- TGI (IGROV1 ovarian): > 100 µM
- TGI (K-562 leukemia): > 100 µM
- TGI (LOX IMVI melanoma): > 100 µM
- TGI (RXF 393 renal): 0.328 µM
- TGI (SN12C renal): > 100 µM
- TGI (SNB-19 CNS): > 100 µM
- TGI (SR leukemia): > 100 µM

Compound: COC(=O)C1CCC(C)CC1=O (stereo not given)
- TGI (A498 renal): > 100 µM
- TGI (HCT-15 colon): > 100 µM
- TGI (IGROV1 ovarian): > 100 µM
- TGI (K-562 leukemia): > 100 µM
- TGI (LOX IMVI melanoma): > 100 µM
- TGI (MALME-3M melanoma): > 100 µM
- TGI (RXF 393 renal): > 100 µM
- TGI (SN12C renal): > 100 µM
- TGI (SNB-19 CNS): > 100 µM

Compound: OCC1OC(OC2(CO)OC(CO)C(O)C2O)C(O)C(O)C1O (stereo not given)
- GI50 (HCT-15 colon): > 100 µM
- TGI (HCT-15 colon): > 100 µM
- GI50 (IGROV1 ovarian): > 100 µM
- TGI (IGROV1 ovarian): > 100 µM
- GI50 (K-562 leukemia): > 100 µM
- TGI (K-562 leukemia): > 100 µM
- GI50 (LOX IMVI melanoma): > 100 µM
- TGI (LOX IMVI melanoma): > 100 µM
- GI50 (MALME-3M melanoma): > 100 µM
- TGI (MALME-3M melanoma): > 100 µM
- GI50 (RXF 393 renal): > 100 µM
- TGI (RXF 393 renal): > 100 µM
- GI50 (SN12C renal): > 100 µM
- TGI (SN12C renal): > 100 µM
- GI50 (SNB-19 CNS): > 100 µM
- TGI (SNB-19 CNS): > 100 µM
- GI50 (SR leukemia): > 100 µM
- TGI (SR leukemia): > 100 µM

Compound: CC(C)c1ccc(Cc2ccc(C(C)C)c(NC(=O)C(=O)Cc3cnc4ccccc4n3)c2C(C)C)c(C(C)C)c1NC(=O)C(=O)Cc1cnc2ccccc2n1
- TGI (A498 renal): > 100 µM
- TGI (HCT-15 colon): > 100 µM
- TGI (IGROV1 ovarian): > 100 µM
- TGI (K-562 leukemia): > 100 µM
- TGI (LOX IMVI melanoma): > 100 µM
- TGI (MALME-3M melanoma): > 100 µM
- TGI (SNB-19 CNS): > 100 µM

Compound: O=C(O)c1ccccc1NCn1nc(-c2ccccc2O)oc1=S
- GI50 (HCT-15 colon): 24.6 µM
- TGI (HCT-15 colon): 65.3 µM
- GI50 (IGROV1 ovarian): > 100 µM
- TGI (IGROV1 ovarian): > 100 µM
- GI50 (K-562 leukemia): 70.9 µM
- TGI (K-562 leukemia): > 100 µM
- GI50 (LOX IMVI melanoma): 19.4 µM
- TGI (LOX IMVI melanoma): 38.9 µM
- GI50 (RXF 393 renal): 68.9 µM
- TGI (RXF 393 renal): > 100 µM
- GI50 (SN12C renal): 56.5 µM
- TGI (SN12C renal): > 100 µM
- GI50 (SNB-19 CNS): > 100 µM
- TGI (SNB-19 CNS): > 100 µM

Compound: O=C(Nc1ccc(-n2cc(-c3ccncc3)c(-c3ccc(Cl)c(O)c3)n2)cc1)c1cc(C(F)(F)F)cc(C(F)(F)F)c1
- GI50 (A498 renal): 14.8 µM
- TGI (A498 renal): 35 µM
- GI50 (HCT-15 colon): 3.65 µM
- TGI (HCT-15 colon): > 100 µM
- GI50 (IGROV1 ovarian): 11.5 µM
- TGI (IGROV1 ovarian): 34.5 µM
- GI50 (K-562 leukemia): 4.97 µM
- TGI (K-562 leukemia): 88 µM
- GI50 (LOX IMVI melanoma): 2.54 µM
- TGI (LOX IMVI melanoma): 10.4 µM
- GI50 (RXF 393 renal): 1.32 µM
- TGI (RXF 393 renal): 3.1 µM
- GI50 (SN12C renal): 7.14 µM
- TGI (SN12C renal): 89.9 µM
- GI50 (SNB-19 CNS): 8.79 µM
- TGI (SNB-19 CNS): > 100 µM
- GI50 (SR leukemia): 9.51 µM
- TGI (SR leukemia): > 100 µM

Compound: CN1CCCc2nc3ccccc3n2C1
- TGI (A498 renal): > 100 µM
- TGI (HCT-15 colon): > 100 µM
- TGI (IGROV1 ovarian): > 100 µM
- TGI (K-562 leukemia): > 100 µM
- TGI (LOX IMVI melanoma): > 100 µM
- TGI (MALME-3M melanoma): > 100 µM
- TGI (RXF 393 renal): > 100 µM
- TGI (SN12C renal): > 100 µM
- TGI (SNB-19 CNS): > 100 µM

Compound: COc1cccc(-c2cc(=O)c3cc(N4CCN(C)CC4)ccc3[nH]2)c1
- TGI (A498 renal): 5.32 µM
- GI50 (HCT-15 colon): 2.44 µM
- GI50 (IGROV1 ovarian): 2.86 µM
- TGI (IGROV1 ovarian): > 100 µM
- GI50 (K-562 leukemia): 0.492 µM
- TGI (K-562 leukemia): 6.22 µM
- GI50 (LOX IMVI melanoma): 2.11 µM
- GI50 (RXF 393 renal): 0.238 µM
- TGI (RXF 393 renal): 5.77 µM and 0.976 µM
- GI50 (SN12C renal): 4.68 µM
- TGI (SN12C renal): > 100 µM
- TGI (SNB-19 CNS): 8.41 µM
- TGI (SR leukemia): 2.49 µM

Compound: C#Cc1cccc(NC(=O)/C=C\C(=O)O)c1
- TGI (A498 renal): > 100 µM
- TGI (K-562 leukemia): > 100 µM
- TGI (MALME-3M melanoma): > 100 µM
- TGI (SN12C renal): > 100 µM
- TGI (SNB-19 CNS): > 100 µM

Compound: Cc1ccccc1Nc1cc(O)c2c(=O)cc(-c3ccccc3)oc2c1
- GI50 (HCT-15 colon): 0.678 µM
- TGI (HCT-15 colon): > 100 µM
- GI50 (IGROV1 ovarian): 3.2 µM
- TGI (IGROV1 ovarian): > 100 µM
- GI50 (K-562 leukemia): 0.469 µM
- TGI (K-562 leukemia): > 100 µM
- GI50 (LOX IMVI melanoma): 2.75 µM
- TGI (LOX IMVI melanoma): > 100 µM
- GI50 (MALME-3M melanoma): 2.43 µM
- TGI (MALME-3M melanoma): > 100 µM
- GI50 (RXF 393 renal): 2.45 µM
- TGI (RXF 393 renal): 9.56 µM
- GI50 (SN12C renal): 4.05 µM
- TGI (SN12C renal): > 100 µM
- GI50 (SNB-19 CNS): 2.98 µM
- TGI (SNB-19 CNS): > 100 µM
- GI50 (SR leukemia): 0.395 µM
- TGI (SR leukemia): > 100 µM

Compound: CC(C)(C)OC(=O)N[C@H]1CC(=O)c2ccccc2N(CC(=O)O)C1=O
- TGI (HCT-15 colon): > 100 µM
- TGI (IGROV1 ovarian): > 100 µM
- TGI (LOX IMVI melanoma): > 100 µM
- TGI (MALME-3M melanoma): 37.1 µM
- TGI (RXF 393 renal): > 100 µM
- TGI (SN12C renal): > 100 µM
- TGI (SNB-19 CNS): > 100 µM

Compound: COS(=O)c1cc(Cl)cc(Cl)c1OC(=O)CSSCC(=O)Oc1c(Cl)cc(Cl)cc1S(=O)OC (stereo not given)
- TGI (A498 renal): 54.1 µM
- TGI (HCT-15 colon): 45.1 µM
- TGI (IGROV1 ovarian): 46.5 µM
- TGI (K-562 leukemia): 51.1 µM
- TGI (LOX IMVI melanoma): 43.8 µM
- TGI (MALME-3M melanoma): 42.4 µM
- TGI (RXF 393 renal): 43.7 µM
- TGI (SN12C renal): 37.3 µM
- TGI (SNB-19 CNS): 49.2 µM

Compound: CCOC(=O)C1C(c2ccc(Br)cc2)N(Cc2ccccc2)C(c2ccc(Br)cc2)C(C(=O)OC)S1(=O)=O (stereo not given)
- TGI (HCT-15 colon): > 100 µM
- TGI (IGROV1 ovarian): > 100 µM
- TGI (K-562 leukemia): > 100 µM
- TGI (LOX IMVI melanoma): > 100 µM
- TGI (MALME-3M melanoma): > 100 µM
- TGI (RXF 393 renal): > 100 µM
- TGI (SN12C renal): > 100 µM
- TGI (SNB-19 CNS): > 100 µM
- TGI (SR leukemia): > 100 µM

Compound: CCCC(O)[C@@]1(CC)CC(C)C(O)(C2(C)C[C@H](C)[C@@H](C(CC)C(=O)C(C)[C@@H](O)[C@H](C)C3OC(O)(C(CC)C(=O)O)[C@@H](C)C(O)C3CC)O2)O1 (stereo not given in full)
- TGI (A498 renal): 2.15 µM
- TGI (HCT-15 colon): 7.03 µM
- TGI (IGROV1 ovarian): 9.81 µM
- TGI (LOX IMVI melanoma): 1.57 µM
- TGI (MALME-3M melanoma): 0.392 µM
- TGI (RXF 393 renal): 1.61 µM
- TGI (SN12C renal): 2.39 µM
- TGI (SNB-19 CNS): 3.15 µM

Compound: CC(C)(C)C1=NO[C@H]2[C@@H](NC(=O)c3ccccc3)CC[C@@H]12
- TGI (HCT-15 colon): > 100 µM
- TGI (IGROV1 ovarian): > 100 µM
- TGI (K-562 leukemia): > 100 µM
- TGI (LOX IMVI melanoma): > 100 µM
- TGI (MALME-3M melanoma): > 100 µM
- TGI (RXF 393 renal): > 100 µM
- TGI (SN12C renal): > 100 µM
- TGI (SNB-19 CNS): > 100 µM
- TGI (SR leukemia): > 100 µM

Compound: N#Cc1c(-c2ccccc2)c(-c2ccccc2)cc2c(=O)c3ccc(Cl)cc3[nH]c12
- TGI (HCT-15 colon): > 100 µM
- TGI (IGROV1 ovarian): > 100 µM
- TGI (MALME-3M melanoma): > 100 µM
- TGI (RXF 393 renal): > 100 µM
- TGI (SN12C renal): > 100 µM
- TGI (SNB-19 CNS): > 100 µM
- TGI (SR leukemia): > 100 µM
